Measured values published in the supplement of paper PMC10307832.

Columns and labels:
Experiment in all cases: relative viability (nuclei count vs DMSO), 5 days (fraction); higher = more cells survive
Sunitinib + Vorinostat = compound: CCN(CC)CCNC(=O)c1c(C)[nH]c(/C=C2\C(=O)Nc3ccc(F)cc32)c1C [Sunitinib] + O=C(CCCCCCC(=O)Nc1ccccc1)NO [Vorinostat] (partner 1 µM)
Method in brief: (§1)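 The day after seeding in 1536-well plates, lung cancer cell lines were treated by pin tool with a single drug, or with a fixed anchor-drug dose together with five library-drug doses (not always all listed) in √10 steps. After 5 days, a combined fix-and-stain solution (final 0.05% Triton X-100, 1% formaldehyde, 1 ug/ml Hoechst) was added. Nuclei counted on 4× images gave relative viability as treated counts over vehicle counts, reported as the median of duplicate plates.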

Sunitinib + Pemetrexed = compound: CCN(CC)CCNC(=O)c1c(C)[nH]c(/C=C2\C(=O)Nc3ccc(F)cc32)c1C [Sunitinib] + Nc1nc2[nH]cc(CCc3ccc(C(=O)N[C@@H](CCC(=O)O)C(=O)O)cc3)c2c(=O)[nH]1 [Pemetrexed] (partner 0.2 µM)
Method in brief: as §1

Sunitinib + Dasatinib = compound: CCN(CC)CCNC(=O)c1c(C)[nH]c(/C=C2\C(=O)Nc3ccc(F)cc32)c1C [Sunitinib] + Cc1nc(Nc2ncc(C(=O)Nc3c(C)cccc3Cl)s2)cc(N2CCN(CCO)CC2)n1 [Dasatinib] (partner 0.075 µM)
Method in brief: as §1

Sunitinib + Palbociclib = compound: CCN(CC)CCNC(=O)c1c(C)[nH]c(/C=C2\C(=O)Nc3ccc(F)cc32)c1C [Sunitinib] + CC(=O)c1c(C)c2cnc(Nc3ccc(N4CCNCC4)cn3)nc2n(C2CCCC2)c1=O [Palbociclib] (partner 0.5 µM)
Method in brief: as §1

Row | Cell Line | relative viability (Sunitinib + Vorinostat; first compound 0.02 µM) | relative viability (Sunitinib + Vorinostat; first compound 0.06325 µM) | relative viability (Sunitinib + Vorinostat; first compound 0.6325 µM) | relative viability (Sunitinib + Vorinostat; first compound 2 µM) | relative viability (Sunitinib + Pemetrexed; first compound 0.02 µM) | relative viability (Sunitinib + Pemetrexed; first compound 0.06325 µM) | relative viability (Sunitinib + Pemetrexed; first compound 0.2 µM) | relative viability (Sunitinib + Pemetrexed; first compound 0.6325 µM) | relative viability (Sunitinib + Pemetrexed; first compound 2 µM) | relative viability (Sunitinib + Dasatinib; first compound 0.02 µM) | relative viability (Sunitinib + Dasatinib; first compound 0.06325 µM) | relative viability (Sunitinib + Dasatinib; first compound 0.2 µM) | relative viability (Sunitinib + Dasatinib; first compound 0.6325 µM) | relative viability (Sunitinib + Dasatinib; first compound 2 µM) | relative viability (Sunitinib + Palbociclib; first compound 0.02 µM) | relative viability (Sunitinib + Palbociclib; first compound 0.06325 µM) | relative viability (Sunitinib + Palbociclib; first compound 0.2 µM) | relative viability (Sunitinib + Palbociclib; first compound 0.6325 µM) | relative viability (Sunitinib + Palbociclib; first compound 2 µM) | relative viability (Sunitinib + Vorinostat; first compound 0.2 µM)
1 | NCI-H441 | 0.67 | 0.833 | 0.984 | 0.85 | 0.263 | 0.253 | 0.278 | 0.235 | 0.257 | 0.545 | 0.684 | 0.714 | 0.763 | 0.658 | 0.223 | 0.233 | 0.237 | 0.232 | 0.221 | 
2 | NCI-H460 | 0.667 | 0.848 | 0.91 | 0.836 | 0.0562 | 0.061 | 0.0606 | 0.0589 | 0.0505 | 0.471 | 0.631 | 0.676 | 0.602 | 0.444 | 0.157 | 0.189 | 0.124 | 0.226 | 0.171 | 1.01
3 | NCI-H520 | 0.694 | 0.793 | 0.674 | 0.578 | 0.61 | 0.814 | 0.686 | 0.761 | 0.6 | 0.226 | 0.186 | 0.18 | 0.224 | 0.217 | 0.237 | 0.248 | 0.224 | 0.27 | 0.267 | 0.569
4 | NCI-H522 | 0.831 | 1.04 | 0.922 | 1.05 | 0.861 | 1.12 | 0.915 | 0.858 | 0.999 | 0.731 | 1.05 | 0.899 | 1.04 | 0.923 | 0.961 | 0.924 | 1.11 | 1.03 | 0.909 | 0.927
5 | NCI-H647 | 0.469 | 0.572 | 0.648 | 0.643 | 0.189 | 0.197 | 0.187 | 0.209 | 0.193 | 0.164 | 0.291 | 0.228 | 0.183 | 0.161 | 0.328 | 0.398 | 0.406 | 0.43 | 0.316 | 0.795
6 | NCI-H650 | 0.382 | 0.439 | 0.55 | 0.395 | 0.877 | 0.958 | 0.914 | 1.05 | 1.01 | 0.491 | 0.523 | 0.41 | 0.533 | 0.476 | 0.298 | 0.338 | 0.308 | 0.355 | 0.396 | 0.423
7 | NCI-H661 | 0.751 | 0.78 | 0.817 | 0.839 | 0.882 | 0.958 | 0.915 | 0.978 | 0.943 | 0.923 | 1.12 | 1.06 | 1.07 | 1.1 | 0.383 | 0.444 | 0.397 | 0.41 | 0.47 | 0.826
8 | NCI-H838 | 0.715 | 0.803 | 0.725 | 0.65 | 0.239 | 0.258 | 0.263 | 0.243 | 0.228 | 0.324 | 0.293 | 0.322 | 0.291 | 0.285 | 0.221 | 0.23 | 0.237 | 0.227 | 0.2 | 0.758
9 | NCI-H1355 | 0.638 | 0.75 | 0.751 | 0.678 | 0.997 | 1.14 | 1.1 | 1.08 |  | 0.715 | 0.804 | 0.943 | 0.756 | 0.674 | 0.41 | 0.393 | 0.44 | 0.382 | 0.393 | 0.793
10 | NCI-H1395 | 0.715 | 0.715 | 0.897 | 0.983 | 0.845 | 0.937 | 0.935 | 1.1 | 0.91 | 0.394 | 0.463 | 0.453 | 0.406 | 0.266 | 0.638 | 0.625 | 0.649 | 0.745 | 0.619 | 0.757
11 | NCI-H1437 | 0.804 | 0.839 | 0.887 |  | 0.336 | 0.329 | 0.345 | 0.309 | 0.322 | 0.489 | 0.418 | 0.478 | 0.39 | 0.412 | 0.294 | 0.347 | 0.305 | 0.346 | 0.329 | 0.876
12 | NCI-H1650 | 0.558 | 0.606 | 0.659 | 0.582 | 0.399 | 0.307 | 0.411 | 0.346 | 0.448 | 0.321 | 0.337 | 0.309 | 0.358 | 0.268 | 0.359 | 0.472 | 0.384 | 0.392 | 0.33 | 0.752
13 | NCI-H1651 | 0.514 | 0.736 | 0.5 | 0.514 | 0.597 | 0.609 | 0.617 | 0.481 | 0.604 | 0.389 | 0.506 | 0.59 | 0.462 | 0.527 | 0.488 | 0.539 | 0.516 | 0.498 | 0.55 | 0.591
14 | NCI-H1666 | 1.12 | 1.06 | 0.996 |  | 0.827 | 0.834 | 0.936 | 0.867 | 0.997 | 0.77 | 0.948 | 0.936 | 0.862 | 0.942 | 0.655 | 0.665 | 0.677 | 0.657 | 0.621 | 1.11
15 | NCI-H1734 | 0.694 | 0.91 | 0.782 | 0.782 | 0.406 | 0.426 | 0.396 | 0.411 | 0.411 | 0.456 | 0.43 | 0.503 | 0.451 | 0.46 | 0.364 | 0.375 | 0.37 | 0.34 | 0.323 | 1.05
16 | NCI-H1755 | 0.735 | 0.878 | 0.758 | 0.842 | 0.427 | 0.502 | 0.636 | 0.407 | 0.52 | 0.41 | 0.46 | 0.441 | 0.424 | 0.448 | 0.423 | 0.46 | 0.49 | 0.459 | 0.468 | 0.897
